Laboratory results taken from US11535630B2, “Apelin receptor (APJ) agonists and uses thereof” (Research Triangle Institute, priority 2015, dated 2022).

The compounds below were run against T1, apelin receptor (APJ) (Homo sapiens, UniProt P35414) (assay: In vitro apelin agonist activity (methods of Giddings et al., Apelin-13 as positive control)). Conditions: EC50 (nM) Ave, in vitro apelin agonist activity, methods of Giddings et al., Apelin-13 as positive control.
T1 sequence (P35414 1-380): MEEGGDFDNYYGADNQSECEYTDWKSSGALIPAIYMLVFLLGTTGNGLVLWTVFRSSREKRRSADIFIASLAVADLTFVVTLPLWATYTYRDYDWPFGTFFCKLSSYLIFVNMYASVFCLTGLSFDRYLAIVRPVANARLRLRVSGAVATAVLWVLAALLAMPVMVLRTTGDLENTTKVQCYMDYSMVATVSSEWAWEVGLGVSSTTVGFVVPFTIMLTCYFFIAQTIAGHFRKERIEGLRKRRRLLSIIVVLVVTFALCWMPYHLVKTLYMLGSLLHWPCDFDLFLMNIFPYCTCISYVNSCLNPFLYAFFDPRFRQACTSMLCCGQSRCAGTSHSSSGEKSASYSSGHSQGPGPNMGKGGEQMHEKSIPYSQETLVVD
Type: cell-based
Source text: Characterization of the Apelin Agonist Activity of the Compounds
1:39-47, the contents of which are hereby incorporated by reference in its entirety. Using the methods described in Giddings et al. and Apelin-13 as a positive control.

SMILES | EC50
O=C(C[C@H](CN1CCC(F)(F)C1)NC(=O)c1cc(-c2ccccc2C(F)(F)F)n(C2CCCC2)n1)NC1CCC1 [compound 523, (3R)-N-cyclobutyl-3-({1-cyclopentyl-5-[2-(trifluoromethyl)phenyl]-1H-pyrazol-3-yl}formamido)-4-(3,3-difluoropyrrolidin-1-yl)butanamide] | 1210 nM
COc1cccc(OC)c1-c1cc(C(=O)N[C@@H](CCc2ccccc2)C(=O)O)nn1CC(C)C [compound 311, (2S)-2-{[5-(2,6-dimethoxyphenyl)-1-(2-methylpropyl)-1H-pyrazol-3-yl]formamido}-4-phenylbutanoic acid] | > 10000 nM

Same assay, conditions: in vitro apelin agonist activity, methods of Giddings et al., Apelin-13 as positive control; read-out: EC50 (nM) Ave

SMILES | EC50
O=C(C[C@H](CCN1CCCCC1)NC(=O)c1cc(-c2c(F)cc(F)cc2F)n(C2CCCC2)n1)NC1CCC1 [compound 354, (3S)-N-cyclobutyl-3-{[1-cyclopentyl-5-(2,4,6-trifluorophenyl)-1H-pyrazol-3-yl]formamido}-5-(piperidin-1-yl)pentanamide] | > 10000 nM
Cc1nnc(C[C@H](CCc2ccc(F)cc2)NC(=O)c2cc(-c3ccccc3C(F)(F)F)n(C3CCCC3)n2)[nH]1 [compound 471, 1-cyclopentyl-N-[(2S)-4-(4-fluorophenyl)-1-(5-methyl-4H-1,2,4-triazol-3-yl)butan-2-yl]-5-[2-(trifluoromethyl)phenyl]-1H-pyrazole-3-carboxamide] | 1140 nM
COc1cccc(OC)c1-c1cc(C(=O)N[C@@H](CCc2ccccc2)CC(N)=O)nn1C1CCCC1 [compound 392, (3S)-3-{[1-cyclopentyl-5-(2,6-dimethoxyphenyl)-1H-pyrazol-3-yl]formamido}-5-phenylpentanamide] | > 10000 nM
O=C(C[C@H](CCN1CCCC(F)(F)C1)NC(=O)c1cc(-c2ccccc2C(F)(F)F)n(C2CCCC2)n1)Nc1ncco1 [compound 427, (3S)-3-({1-cyclopentyl-5-[2-(trifluoromethyl)phenyl]-1H-pyrazol-3-yl}formamido)-5-(3,3-difluoropiperidin-1-yl)-N-(1,3-oxazol-2-yl)pentanamide] | 8.5 nM
CCN(CC)CC[C@@H](CC(=O)OC(C)(C)C)NC(=O)c1cc(-c2c(OC)cccc2OC)n(C2CCCC2)n1 [compound 305, tert-butyl (3S)-3-{[1-cyclopentyl-5-(2,6-dimethoxyphenyl)-1H-pyrazol-3-yl]formamido}-5-(diethylamino)pentanoate] | > 10000 nM
COc1cccc(OC)c1-c1cc(C(=O)N[C@H]2CCN(Cc3ccncc3)C(=O)C2)nn1C1CCCC1 [compound 315, 1-cyclopentyl-5-(2,6-dimethoxyphenyl)-N-[(4S)-2-oxo-1-(pyridin-4-ylmethyl)piperidin-4-yl]-1H-pyrazole-3-carboxamide] | > 10000 nM
COc1cccc(OC)c1-c1cc(C(=O)N[C@@H](CCN2CCCCCC2)CC(=O)OC(C)(C)C)nn1C1CCCC1 [compound 319, tert-butyl (3S)-5-(azepan-1-yl)-3-{[1-cyclopentyl-5-(2,6-dimethoxyphenyl)-1H-pyrazol-3-yl]formamido}pentanoate] | 3510 nM
CC(F)(F)c1ccccc1-c1cc(C(=O)N[C@@H](CCN2CCCC(F)(F)C2)CC(=O)Nc2nccs2)nn1C1CCCC1 [compound 428, (3S)-3-({1-cyclopentyl-5-[2-(1,1-difluoroethyl)phenyl]-1H-pyrazol-3-yl}formamido)-5-(3,3-difluoropiperidin-1-yl)-N-(1,3-thiazol-2-yl)pentanamide] | 7.5 nM
COc1cccc(Cl)c1-c1cc(C(=O)N[C@@H](CCN2CCCCC2)CC(=O)NC2CCC2)nn1C1CCCC1 [compound 370, (3S)-3-{[5-(2-chloro-6-methoxyphenyl)-1-cyclopentyl-1H-pyrazol-3-yl]formamido}-N-cyclobutyl-5-(piperidin-1-yl)pentanamide] | 1030 nM
COc1cccc(OC)c1-c1cc(C(=O)N[C@@H](/C=C/c2cccnc2)CC(=O)NC2CCC2)nn1C1CCCC1 [compound 418, (3R,4E)-N-cyclobutyl-3-{[1-cyclopentyl-5-(2,6-dimethoxyphenyl)-1H-pyrazol-3-yl]formamido}-5-(pyridin-3-yl)pent-4-enamide] | 664 nM
O=C(C[C@H](CCN1CCCCC1)NC(=O)c1cc(-c2ccsc2C(F)(F)F)n(C2CCCC2)n1)NC1CCC1 [compound 434] | 641 nM
COCCN(C)C(=O)C[C@H](CCN1CCCCC1)NC(=O)c1cc(-c2c(OC)cccc2OC)n(C2CCCC2)n1 [compound 334, (3S)-3-{[1-cyclopentyl-5-(2,6-dimethoxyphenyl)-1H-pyrazol-3-yl]formamido}-N-(2-methoxyethyl)-N-methyl-5-(piperidin-1-yl)pentanamide] | 6570 nM
COc1cccc(OC)c1-c1cc(C(=O)N[C@@H](CCN2CCCCC2)Cc2nnc[nH]2)nn1C1CCCC1 [compound 414] | 200 nM
O=C(C[C@H](CCN1CCCCC1)NC(=O)c1cc(-c2cscn2)n(C2CCCC2)n1)NC1CCC1 [compound 378, (3S)-N-cyclobutyl-3-{[1-cyclopentyl-5-(1,3-thiazol-4-yl)-1H-pyrazol-3-yl]formamido}-5-(piperidin-1-yl)pentanamide] | 9390 nM
O=C(C[C@H](CCN1CCCCC1)NC(=O)c1cc(-c2ccccc2OC(F)(F)F)n(C2CCCC2)n1)NC1CCC1 [compound 359, (3S)-N-cyclobutyl-3-({1-cyclopentyl-5-[2-(trifluoromethoxy)phenyl]-1H-pyrazol-3-yl]formamido)-5-(piperidin-1-yl)pentanamide] | 271 nM

More lines, now with the values ahead:

EC50 | SMILES
982 nM | COCCN(C)C(=O)[C@H](CCc1ccccc1)NC(=O)c1nc(-c2ncccc2C(F)(F)F)n(C2CCCC2)n1 [compound 564]
738 nM | O=C(O)C[C@@H](NC(=O)c1cc(-c2ccccc2C(F)(F)F)n(C2CCCC2)n1)C(=O)Nc1ccc(F)cc1 [compound 560, (3R)-3-({1-cyclopentyl-5-[2-(trifluoromethyl)phenyl]-1H-pyrazol-3-yl}formamido)-3-[(4-fluorophenyl)carbamoyl]propanoic acid]
1230 nM | O=C(O)C[C@H](COc1ccc(F)cc1)NC(=O)c1cc(-c2ccccc2C(F)(F)F)n(C2CCCC2)n1 [compound 545, (3R)-3-({1-cyclopentyl-5-[2-(trifluoromethyl)phenyl]-1H-pyrazol-3-yl}formamido)-4-(4-fluorophenoxy)butanoic acid]
24 nM | C[C@H](C[C@@H](CC(=O)O)NC(=O)c1cc(-c2ccccc2C(C)(F)F)n(C2CCCC2)n1)N1C[C@@H](F)[C@H](F)C1 (mixture of isomers) [compound 599, (3S,5R)-3-({1-cyclopentyl-5-[2-(1,1-difluoroethyl)phenyl]-1H-pyrazol-3-yl}formamido)-5-[trans-3,4-difluoropyrrolidin-1-yl]hexanoic acid]
130 nM | O=C(O)C[C@H](CCN1CCCC(F)(F)C1)NC(=O)c1cc(-c2ccccc2C(F)(F)F)n(CC2CCC2)n1 [compound 571, (3S)-3-{[1-(cyclobutylmethyl)-5-[2-(trifluoromethyl)phenyl]-1H-pyrazol-3-yl}formamido}-5-(3,3-difluoropiperidin-1-yl)pentanoic acid]
648 nM | CC(C[C@@H](CC(=O)O)NC(=O)c1cc(-c2ccccc2C(F)(F)F)n(C2CCCC2)n1)N1CCC(F)(F)C1 (stereo partly drawn) [compound 567, (3S)-3-({1-cyclopentyl-5-[2-(trifluoromethyl)phenyl]-1H-pyrazol-3-yl}formamido)-5-(3,3-difluoropyrrolidin-1-yl)hexanoic acid]
36 nM | CCCN(CCC)CC[C@@H](CC(=O)NC1CCC1)NC(=O)c1cc(-c2ccccc2C(F)(F)F)n(C2CCCC2)n1 [compound 492, (3S)-N-cyclobutyl-3-({1-cyclopentyl-5-[2-(trifluoromethyl)phenyl]-1H-pyrazol-3-yl}formamido)-5-(dipropylamino)pentanamide]
215 nM | O=C(O)C[C@H](CCN1CCCCC1)NC(=O)c1cc(-c2ccccc2C(F)(F)F)n(C2CCCC2)n1 [compound 494, (3S)-3-({1-cyclopentyl-5-[2-(trifluoromethyl)phenyl]-1H-pyrazol-3-yl}formamido)-5-(piperidin-1-yl)pentanoic acid]
39 nM | O=C(C[C@H](CCNC(=O)C1CCCC1)NC(=O)c1cc(-c2ccccc2C(F)(F)F)n(C2CCCC2)n1)NC1CCC1 [compound 536, (3S)-N-cyclobutyl-3-({1-cyclopentyl-5-[2-(trifluoromethyl)phenyl]-1H-pyrazol-3-yl}formamido)-5-(cyclopentylformamido)pentanamide]
110 nM | O=C(O)C[C@H](CCN1CCC(F)(F)C1)NC(=O)c1cc(-c2ccccc2C(F)(F)F)n(C2CCCC2)n1 [compound 485, (3S)-3-({1-cyclopentyl-5-[2-(trifluoromethyl)phenyl]-1H-pyrazol-3-yl}formamido)-5-(3,3-difluoropyrrolidin-1-yl)pentanoic acid]
146 nM | O=C(N[C@@H](CCc1ccc(F)cc1)Cc1nnc(C(F)(F)F)o1)c1cc(-c2ccccc2C(F)(F)F)n(C2CCCC2)n1 [compound 475, 1-cyclopentyl-N-[(2S)-4-(4-fluorophenyl)-1-[5-(trifluoromethyl)-1,3,4-oxadiazol-2-yl]butan-2-yl]-5-[2-(trifluoromethyl)phenyl]-1H-pyrazole-3-carboxamide]
140 nM | CC(C[C@@H](CC(=O)O)NC(=O)c1cc(-c2ccccc2C(C)(F)F)n(C2CCCC2)n1)N1C[C@H](F)[C@@H](F)C1 (some centres unmarked) [compound 595]
